Measurements reported in the CheMixHub viscosity set.

Assay: xn = mol fraction of the nth substance listed

CCOC(=O)c1ccccc1 + CCCCCCCCCCCCCC
101 kPa
Conditions	viscosity [mPa·s]
298.15 K, x2 = 0.0376	1.927
298.15 K, x2 = 0.0653	1.899
298.15 K, x2 = 0.097	1.866
298.15 K, x2 = 0.1285	1.84
298.15 K, x2 = 0.1619	1.815
298.15 K, x2 = 0.1952	1.799
298.15 K, x2 = 0.229	1.781
298.15 K, x2 = 0.269	1.767
298.15 K, x2 = 0.3084	1.754
298.15 K, x2 = 0.3521	1.745
298.15 K, x2 = 0.3928	1.742
298.15 K, x2 = 0.4877	1.744
298.15 K, x2 = 0.5485	1.755
298.15 K, x2 = 0.5924	1.767
298.15 K, x2 = 0.6572	1.791
298.15 K, x2 = 0.7238	1.827
298.15 K, x2 = 0.7795	1.867
298.15 K, x2 = 0.8695	1.935
308.15 K, x2 = 0.0358	1.606
308.15 K, x2 = 0.0727	1.582
308.15 K, x2 = 0.1009	1.566
308.15 K, x2 = 0.1305	1.552
308.15 K, x2 = 0.1614	1.537
308.15 K, x2 = 0.198	1.524
308.15 K, x2 = 0.2316	1.515
308.15 K, x2 = 0.2666	1.506
308.15 K, x2 = 0.3094	1.498
308.15 K, x2 = 0.3501	1.493
308.15 K, x2 = 0.3905	1.49
308.15 K, x2 = 0.4393	1.489
308.15 K, x2 = 0.4794	1.491
308.15 K, x2 = 0.5373	1.498
308.15 K, x2 = 0.5983	1.51
308.15 K, x2 = 0.6573	1.527
308.15 K, x2 = 0.7193	1.552
308.15 K, x2 = 0.8442	1.615
308.15 K, x2 = 0.9249	1.663
318.15 K, x2 = 0.0231	1.332
318.15 K, x2 = 0.0543	1.31
318.15 K, x2 = 0.0817	1.291
318.15 K, x2 = 0.1144	1.274
318.15 K, x2 = 0.1449	1.259
318.15 K, x2 = 0.1819	1.245
318.15 K, x2 = 0.2156	1.233
318.15 K, x2 = 0.2563	1.225
318.15 K, x2 = 0.2936	1.219
318.15 K, x2 = 0.3396	1.213
318.15 K, x2 = 0.3807	1.212
318.15 K, x2 = 0.4322	1.213
318.15 K, x2 = 0.4784	1.216
318.15 K, x2 = 0.5446	1.226
318.15 K, x2 = 0.5958	1.237
318.15 K, x2 = 0.6468	1.251
318.15 K, x2 = 0.6941	1.267
318.15 K, x2 = 0.7925	1.306
318.15 K, x2 = 0.8579	1.336

CC(C)CC1CCCCC1 + CCCCCCCCCCCCCCCC
viscosity [mPa·s], 102 kPa
Conditions	x1 = 0.1	x1 = 0.2005	x1 = 0.3003	x1 = 0.3992	x1 = 0.5037	x1 = 0.6003	x1 = 0.6997	x1 = 0.7997
293.15 K	3.22	2.96	2.7	2.46	2.2	1.99	1.77	1.56
303.15 K	2.57	2.38	2.19	2.01	1.82	1.65	1.48	1.31
313.15 K	2.1	1.95	1.81	1.67	1.52	1.39	1.26	1.12
323.15 K	1.74	1.63	1.52	1.41	1.29	1.19	1.07	0.972

CCCNCCC + CCCCCCCCCCO
viscosity [mPa·s], 101.33 kPa
Conditions	x1 = 0.1006	x1 = 0.1963	x1 = 0.2905	x1 = 0.3847	x1 = 0.5117	x1 = 0.618	x1 = 0.7197	x1 = 0.8159	x1 = 0.895
303.15 K	7.53	6.262	5.075	3.99	2.748	1.943	1.364	0.9795	0.7427
313.15 K	5.817	4.775	3.828	2.993	2.07	1.486	1.076	0.7925	0.6095

CCCNCCC + CCCCCCCCO
viscosity [mPa·s], 101.33 kPa
Conditions	x1 = 0.0971	x1 = 0.1988	x1 = 0.2871	x1 = 0.3825	x1 = 0.4806	x1 = 0.5852	x1 = 0.6925	x1 = 0.7882	x1 = 0.8977
303.15 K	5.165	4.21	3.462	2.752	2.135	1.61	1.202	0.9319	0.6909
313.15 K	3.773	3.107	2.571	2.053	1.6	1.223	0.9264	0.7294	0.5547

CC1CCCCC1 + CCCCCCCO
Conditions	viscosity [mPa·s]
298.15 K, 101 kPa, x1 = 0.111	4.608
298.15 K, 101 kPa, x1 = 0.2237	3.546
298.15 K, 101 kPa, x1 = 0.389	2.371
298.15 K, 101 kPa, x1 = 0.6878	1.192
298.15 K, 101 kPa, x1 = 0.8281	0.89
298.15 K, 101 kPa, x1 = 0.9181	0.757
303.15 K, 101.33 kPa, x2 = 0.1208	0.7838
303.15 K, 101.33 kPa, x2 = 0.211	0.9181
303.15 K, 101.33 kPa, x2 = 0.3517	1.174
303.15 K, 101.33 kPa, x2 = 0.4355	1.364
303.15 K, 101.33 kPa, x2 = 0.5214	1.599
303.15 K, 101.33 kPa, x2 = 0.608	1.899
303.15 K, 101.33 kPa, x2 = 0.718	2.394
303.15 K, 101.33 kPa, x2 = 0.7991	2.87
303.15 K, 101.33 kPa, x2 = 0.8894	3.56
